pIC50: −log10 of the molar value.
Columns and labels:
[1] = biological target: T1, Acetylcholinesterase (Bos taurus, UniProt P23795)
T1 sequence (P23795 whole entry): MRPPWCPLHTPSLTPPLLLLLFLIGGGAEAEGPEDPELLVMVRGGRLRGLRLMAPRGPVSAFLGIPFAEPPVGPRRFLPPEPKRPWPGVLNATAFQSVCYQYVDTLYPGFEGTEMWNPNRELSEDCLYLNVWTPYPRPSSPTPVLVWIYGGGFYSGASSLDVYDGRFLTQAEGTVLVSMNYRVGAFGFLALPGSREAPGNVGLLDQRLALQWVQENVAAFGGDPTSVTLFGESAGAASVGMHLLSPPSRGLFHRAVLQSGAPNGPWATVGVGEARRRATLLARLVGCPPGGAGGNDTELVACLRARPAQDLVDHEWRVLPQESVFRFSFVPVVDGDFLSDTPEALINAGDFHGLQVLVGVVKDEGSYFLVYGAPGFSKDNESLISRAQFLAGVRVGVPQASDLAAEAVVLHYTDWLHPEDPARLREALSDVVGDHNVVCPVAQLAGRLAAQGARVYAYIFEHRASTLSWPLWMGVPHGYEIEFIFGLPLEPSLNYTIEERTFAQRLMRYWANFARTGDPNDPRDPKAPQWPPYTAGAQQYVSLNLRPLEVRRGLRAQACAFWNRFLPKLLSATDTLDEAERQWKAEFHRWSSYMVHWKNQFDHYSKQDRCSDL
Description: Inhibition of bovine AChE after 20 mins using acetylthiocholine iodide as a substrate by Ellman's assay

[2] = biological target: Butyrylcholinesterase (Equus caballus, UniProt Q9N1N9)
Description: Inhibition of equine BChE after 20 mins using butyrylthiocholine iodide as a substrate by Ellman's assay

[3] = biological target: Acetylcholinesterase (Homo sapiens, UniProt P22303)
Description: Inhibition of human recombinant AChE after 20 mins using acetylthiocholine iodide as a substrate by Ellman's assay

[4] = biological target: Cholinesterase (Homo sapiens, UniProt P06276)
Description: Inhibition of human BChE after 20 mins using butyrylthiocholine iodide as a substrate by Ellman's assay

[5] = Selectivity index, ratio of IC50 for equine BChE to IC50 for bovine AChE
[6] = biological target: T2, Acetylcholinesterase (Bos taurus) (UniProt P23795); experiment: Inhibition of bovine AChE at 10 uM after 20 mins using acetylthiocholine iodide as a substrate by Ellman's assay
T2 sequence (whole entry): T1 sequence (P23795 whole entry)

Sequence of Cholinesterase (P06276 whole entry): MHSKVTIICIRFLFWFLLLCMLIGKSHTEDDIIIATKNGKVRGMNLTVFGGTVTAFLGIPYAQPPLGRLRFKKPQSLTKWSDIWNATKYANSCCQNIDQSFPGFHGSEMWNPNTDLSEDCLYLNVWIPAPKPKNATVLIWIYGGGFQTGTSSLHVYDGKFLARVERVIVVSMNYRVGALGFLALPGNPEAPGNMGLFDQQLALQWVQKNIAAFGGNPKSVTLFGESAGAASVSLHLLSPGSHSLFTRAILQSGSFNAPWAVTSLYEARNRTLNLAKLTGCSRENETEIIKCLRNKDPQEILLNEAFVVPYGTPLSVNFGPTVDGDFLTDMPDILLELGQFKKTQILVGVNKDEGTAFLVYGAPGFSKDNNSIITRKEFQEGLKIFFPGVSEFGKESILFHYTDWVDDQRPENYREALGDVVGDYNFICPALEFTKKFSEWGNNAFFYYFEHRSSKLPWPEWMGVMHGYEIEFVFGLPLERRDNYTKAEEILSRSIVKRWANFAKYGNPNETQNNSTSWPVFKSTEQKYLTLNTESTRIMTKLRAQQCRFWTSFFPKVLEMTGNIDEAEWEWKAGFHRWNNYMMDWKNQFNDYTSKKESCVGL
Sequence of Butyrylcholinesterase (Q9N1N9 whole entry): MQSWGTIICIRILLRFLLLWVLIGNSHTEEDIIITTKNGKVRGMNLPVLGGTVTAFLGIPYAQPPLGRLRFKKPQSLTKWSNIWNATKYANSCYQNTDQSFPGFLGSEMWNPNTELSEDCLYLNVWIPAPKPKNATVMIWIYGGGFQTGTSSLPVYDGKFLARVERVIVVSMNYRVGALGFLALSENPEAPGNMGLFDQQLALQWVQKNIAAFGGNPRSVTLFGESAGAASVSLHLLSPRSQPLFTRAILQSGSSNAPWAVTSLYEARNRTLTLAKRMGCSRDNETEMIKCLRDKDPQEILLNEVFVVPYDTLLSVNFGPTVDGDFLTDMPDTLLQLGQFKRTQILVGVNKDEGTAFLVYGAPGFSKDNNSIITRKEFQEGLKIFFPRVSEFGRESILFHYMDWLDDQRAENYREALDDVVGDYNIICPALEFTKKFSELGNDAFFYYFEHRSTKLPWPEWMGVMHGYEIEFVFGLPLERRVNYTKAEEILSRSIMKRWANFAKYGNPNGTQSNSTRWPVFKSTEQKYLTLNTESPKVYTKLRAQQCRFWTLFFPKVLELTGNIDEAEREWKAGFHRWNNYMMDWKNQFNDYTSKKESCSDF
Sequence of Acetylcholinesterase (Homo sapiens, UniProt P22303) (P22303 whole entry): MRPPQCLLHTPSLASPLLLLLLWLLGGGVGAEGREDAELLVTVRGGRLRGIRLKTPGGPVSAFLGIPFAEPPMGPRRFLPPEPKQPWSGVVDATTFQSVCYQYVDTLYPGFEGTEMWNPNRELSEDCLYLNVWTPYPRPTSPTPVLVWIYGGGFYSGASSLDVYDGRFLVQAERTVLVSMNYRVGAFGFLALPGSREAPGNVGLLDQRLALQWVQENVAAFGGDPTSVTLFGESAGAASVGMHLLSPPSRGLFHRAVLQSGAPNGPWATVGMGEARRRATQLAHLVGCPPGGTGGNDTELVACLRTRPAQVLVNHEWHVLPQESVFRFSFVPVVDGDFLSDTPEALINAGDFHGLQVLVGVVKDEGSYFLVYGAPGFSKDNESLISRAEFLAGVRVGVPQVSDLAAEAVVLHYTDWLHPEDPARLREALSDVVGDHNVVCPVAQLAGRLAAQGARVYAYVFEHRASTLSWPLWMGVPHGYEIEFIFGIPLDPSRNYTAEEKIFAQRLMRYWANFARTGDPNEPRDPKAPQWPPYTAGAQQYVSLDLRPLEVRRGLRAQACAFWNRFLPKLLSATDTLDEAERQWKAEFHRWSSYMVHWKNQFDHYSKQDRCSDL

Structure (SMILES)	pIC50 [1]	pIC50 [2]	pIC50 [3]	pIC50 [4]	Ratio IC50 [5]	inhibition [6] [%]
c1cc(C[n+]2ccc(N3CCCCC3)cc2)cc(-c2cccc(C[n+]3ccc(N4CCCCC4)cc3)c2)c1	7.59	6.75	7.22	6.48	6.9	
c1cc(C[n+]2ccc(N3CCc4ccccc4C3)cc2)cc(C[n+]2ccc(N3CCc4ccccc4C3)cc2)c1	6.55	6.72			0.68	
c1cc(C[n+]2ccc(N3CCCCC3)cc2)ccc1Cc1ccc(C[n+]2ccc(N3CCCCC3)cc2)cc1	7.08	7.21			0.75	
CN(c1cc[n+](Cc2ccc(-c3ccc(C[n+]4ccc(N(C)c5cc(Cl)cc(Cl)c5)cc4)cc3)cc2)cc1)c1cc(Cl)cc(Cl)c1	5.54	6.26			0.19	
c1ccc(-c2cc[n+](Cc3cccc(-c4cccc(C[n+]5ccc(-c6ccccc6)cc5)c4)c3)cc2)cc1	6.26	6.10			1.4	
Cc1c[n+](Cc2cccc(-c3cccc(C[n+]4cc(C)c(N)c5ccccc54)c3)c2)c2ccccc2c1N	6.30	7.23			0.12	
c1cc(C[n+]2ccc(N3CCCC3)cc2)ccc1C[n+]1ccc(N2CCCC2)cc1	6.47	5.89			3.9	
CN(c1ccc(Cl)cc1)c1cc[n+](Cc2cccc(-c3cccc(C[n+]4ccc(N(C)c5ccc(Cl)cc5)cc4)c3)c2)cc1	5.75	6.30			0.28	
OC1C[N+]2(Cc3ccc(CCc4ccc(C[N+]56CCC(CC5)C(O)C6)cc4)cc3)CCC1CC2 (centres undefined)	7.01	5.68			22	
CN(C)c1cc[n+](Cc2cccc(C[n+]3ccc(N(C)C)cc3)c2)cc1	6.41	5.12			19	
c1cc(C[n+]2ccc(C3CCCCC3)cc2)cc(-c2cccc(C[n+]3ccc(C4CCCCC4)cc3)c2)c1	6.87	5.96			8.2	
c1cc2cc(c1)C[n+]1ccc(cc1)NCc1ccc(cc1)CNc1cc[n+](cc1)C2	5.41	6.07			0.22	
CN(C)c1cc[n+](Cc2ccc(CCc3ccc(C[n+]4ccc(N(C)C)cc4)cc3)cc2)cc1	6.20	5.87			2.2	
CN(c1cc[n+](Cc2cc(C[n+]3ccc(N(C)c4cc(Cl)cc(Cl)c4)cc3)cc(C[n+]3ccc(N(C)c4cc(Cl)cc(Cl)c4)cc3)c2)cc1)c1cc(Cl)cc(Cl)c1	5.75	6.17			0.38	
c1cc(C[n+]2ccc(N3CCCC3)cc2)ccc1CCc1ccc(C[n+]2ccc(N3CCCC3)cc2)cc1	6.41	6.13			1.9	
c1cc(C[n+]2ccc(N3CCCCCC3)cc2)ccc1CCCc1ccc(C[n+]2ccc(N3CCCCCC3)cc2)cc1	6.69	6.79			0.81	
OC1C[N+]2(Cc3cccc(-c4cccc(C[N+]56CCC(CC5)C(O)C6)c4)c3)CCC1CC2 (centres undefined)		5.94			0.11	55.8
c1cc(C[n+]2ccc(N3CCCCC3)cc2)cc(C[n+]2ccc(N3CCCCC3)cc2)c1	6.94	6.47			2.9	
c1cc(C[n+]2ccc(N3CCCCC3)cc2)ccc1CCCc1ccc(C[n+]2ccc(N3CCCCC3)cc2)cc1	6.79	6.83			0.91	
COc1cc2c(cc1OC)CN(c1cc[n+](Cc3cccc(-c4cccc(C[n+]5ccc(N6CCc7cc(OC)c(OC)cc7C6)cc5)c4)c3)cc1)CC2	6.28	5.93			2.3	
C(=C\c1ccc(C[n+]2ccc(N3CCCCC3)cc2)cc1)/c1ccc(C[n+]2ccc(N3CCCCC3)cc2)cc1	6.24	6.61			0.42	
c1ccc(C[n+]2ccc(N3CCCC3)cc2)cc1	5.26					
Cc1ccc(C[n+]2ccc(N)c3ccccc32)cc1						34
COc1cc2c(cc1OC)CN(c1cc[n+](Cc3cccc(C[n+]4ccc(N5CCc6cc(OC)c(OC)cc6C5)cc4)c3)cc1)CC2	5.68	6.05			0.42	
c1cc(C[n+]2ccc(N3CCCC3)cc2)cc(-c2cccc(C[n+]3ccc(N4CCCC4)cc3)c2)c1	7.41	6.29			13	
c1cc(C[n+]2ccc(N3CCCC3)cc2)ccc1CCCc1ccc(C[n+]2ccc(N3CCCC3)cc2)cc1	7.09	6.53			3.6	

Structure (SMILES)	pIC50 [1]	pIC50 [2]	pIC50 [3]	pIC50 [4]	Ratio IC50 [5]	inhibition [6] [%]
CN(c1ccccc1)c1cc[n+](Cc2cccc(C[n+]3ccc(N(C)c4ccccc4)cc3)c2)cc1	5.94	6.04			0.79	
c1cc(C[n+]2ccc(N3CCCC3)cc2)ccc1Cc1ccc(C[n+]2ccc(N3CCCC3)cc2)cc1	6.74	6.24			3.1	
c1cc(C[n+]2ccc(NC3CCCCC3)cc2)ccc1CCCCc1ccc(C[n+]2ccc(NC3CCCCC3)cc2)cc1	7.00	6.69			2.1	
OC1C[N+]2(Cc3ccc(/C=C/c4ccc(C[N+]56CCC(CC5)C(O)C6)cc4)cc3)CCC1CC2 (centres undefined)	6.85	5.27			38	
CN(c1ccc(Cl)cc1)c1cc[n+](Cc2ccc(-c3ccc(C[n+]4ccc(N(C)c5ccc(Cl)cc5)cc4)cc3)cc2)cc1	5.51	6.17			0.22	
c1cc(-c2ccc(C[n+]3ccc(N4CCCC4)cc3)cc2)ccc1C[n+]1ccc(N2CCCC2)cc1	7.05	5.90			14	
COc1cc2c(cc1OC)CN(c1cc[n+](Cc3ccc(C[n+]4ccc(N5CCc6cc(OC)c(OC)cc6C5)cc4)cc3)cc1)CC2	5.71	5.86			0.7	
CN(c1cc[n+](Cc2ccc(C[n+]3ccc(N(C)c4cc(Cl)cc(Cl)c4)cc3)cc2)cc1)c1cc(Cl)cc(Cl)c1	5.28	5.80			0.31	
Cc1c2c(C)c3c(C)c1C[n+]1ccc(cc1)NCc1cc(cc(c1)CNc1cc[n+](cc1)C3)CNc1cc[n+](cc1)C2	5.43	6.29			0.14	
c1cc(C[n+]2ccc(N3CCCCCC3)cc2)ccc1CCc1ccc(C[n+]2ccc(N3CCCCCC3)cc2)cc1	7.07	6.56			3.2	
c1cc(C[n+]2ccc(N3CCCCC3)cc2)ccc1C[n+]1ccc(N2CCCCC2)cc1	7.14	6.17	7.12	6.21	9.5	
COc1cc2c(cc1OC)CN(c1cc[n+](Cc3ccc(-c4ccc(C[n+]5ccc(N6CCc7cc(OC)c(OC)cc7C6)cc5)cc4)cc3)cc1)CC2	7.03	5.82			16	
Cc1ccc(C[n+]2ccc(N3CCCC3)cc2)cc1						52
CN(C)c1cc[n+](Cc2ccc(C[n+]3ccc(N(C)C)cc3)cc2)cc1	5.88				7.6	
c1cc(C[n+]2ccc(N3CCCCC3)cc2)ccc1CCc1ccc(C[n+]2ccc(N3CCCCC3)cc2)cc1	7.10	6.89			1.6	
Nc1cc[n+](Cc2ccc(CCc3ccc(C[n+]4ccc(N)c5ccccc54)cc3)cc2)c2ccccc12	6.17	6.21			0.92	
c1cc(C[N+]23CCC(CC2)CC3)cc(-c2cccc(C[N+]34CCC(CC3)CC4)c2)c1	5.96	7.05	6.21	7.44	0.081	
c1cc(C[n+]2ccc(N3CCCC3)cc2)ccc1CCCCc1ccc(C[n+]2ccc(N3CCCC3)cc2)cc1	6.98	6.17			6.5	
CN(C)c1cc[n+](Cc2cc(C[n+]3ccc(N(C)C)cc3)cc(C[n+]3ccc(N(C)C)cc3)c2)cc1	5.56				3.6	
c1cc(C[n+]2ccc(N3CCOCC3)cc2)ccc1CCc1ccc(C[n+]2ccc(N3CCOCC3)cc2)cc1	5.57	5.35			1.7	
c1cc(-c2ccc(C[n+]3ccc(N4CCCCC4)cc3)cc2)ccc1C[n+]1ccc(N2CCCCC2)cc1	6.80	6.37			2.7	
c1ccc2c(c1)CCN(c1cc[n+](Cc3ccc(-c4ccc(C[n+]5ccc(N6CCc7ccccc7C6)cc5)cc4)cc3)cc1)C2	6.46	6.50			0.92	
c1ccc2c(c1)CCN(c1cc[n+](Cc3ccc(C[n+]4ccc(N5CCc6ccccc6C5)cc4)cc3)cc1)C2	6.90	6.49			2.6	
CN(C)c1cc[n+](C[C@@H]2C[C@H]2C[n+]2ccc(N(C)C)cc2)cc1 (relative stereo)	5.06					
CN(C)c1cc[n+](Cc2ccc(CCCCc3ccc(C[n+]4ccc(N(C)C)cc4)cc3)cc2)cc1	6.60	6.43			1.5	

Reference: ChEMBL document CHEMBL1770085, “Homodimeric bis-quaternary heterocyclic ammonium salts as potent acetyl- and butyrylcholinesterase inhibitors: a systematic investigation of the influence of linker and cationic heads over affinity and selectivity” (J Med Chem, 2011)
